# Reference: the supplement of paper PMC10307832
# Tests used:
# Assay in all cases: relative viability (nuclei count vs DMSO), 5 days (fraction); higher = more cells survive
# [1] = compound: CN(C)C[C@@H]1CCn2cc(c3ccccc32)C2=C(C(=O)NC2=O)c2cn(c3ccccc23)CCO1 [Ruboxistaurin] + CS(=O)(=O)N1CCN(Cc2cc3nc(-c4cccc5[nH]ncc45)nc(N4CCOCC4)c3s2)CC1 [Pictilisib] (partner 1 µM)
# Method in brief: (§1)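 Cells from lung cancer lines were seeded into 1536-well plates and, one day later, dosed by pin tool. Treatments were either a single drug or a fixed dose of an anchor drug with five library-drug doses (not always all listed) in √10 steps. After 5 days, nuclei were stained in a one-step fixation (final 0.05% Triton X-100, 1% formaldehyde, 1 ug/ml Hoechst) and counted on 4× images, and relative viability is the treated-to-vehicle nuclei ratio, as the median of duplicate plates.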
# [2] = compound: CN(C)C[C@@H]1CCn2cc(c3ccccc32)C2=C(C(=O)NC2=O)c2cn(c3ccccc23)CCO1 [Ruboxistaurin] + CC(C)C[C@H](NC(=O)[C@H](Cc1ccccc1)NC(=O)c1cnccn1)B(O)O [Bortezomib] (partner 0.002 µM)
# Method in brief: as §1
# [3] = compound: CN(C)C[C@@H]1CCn2cc(c3ccccc32)C2=C(C(=O)NC2=O)c2cn(c3ccccc23)CCO1 [Ruboxistaurin] + C[C@@H](Oc1cc(-c2cnn(C3CCNCC3)c2)cnc1N)c1c(Cl)ccc(F)c1Cl [Crizotinib] (partner 1 µM)
# Method in brief: as §1
# [4] = compound: CN(C)C[C@@H]1CCn2cc(c3ccccc32)C2=C(C(=O)NC2=O)c2cn(c3ccccc23)CCO1 [Ruboxistaurin] + C[C@]1(O)C[C@@H](c2nc(-c3ccc4ccc(-c5ccccc5)nc4c3)c3c(N)nccn32)C1 [Linsitinib] (partner 1 µM)
# Method in brief: as §1
# [5] = compound: CN(C)C[C@@H]1CCn2cc(c3ccccc32)C2=C(C(=O)NC2=O)c2cn(c3ccccc23)CCO1 [Ruboxistaurin] + Cc1nc(NC(=O)N2CCC[C@H]2C(N)=O)sc1-c1ccnc(C(C)(C)C(F)(F)F)c1 [Alpelisib] (partner 2 µM)
# Method in brief: as §1
Cell Line,relative viability ([1]; first compound 0.08 µM),relative viability ([1]; first compound 0.8 µM),relative viability ([1]; first compound 2.53 µM),relative viability ([1]; first compound 8 µM),relative viability ([2]; first compound 0.08 µM),relative viability ([2]; first compound 0.8 µM),relative viability ([2]; first compound 2.53 µM),relative viability ([2]; first compound 8 µM),relative viability ([3]; first compound 0.08 µM),relative viability ([3]; first compound 0.8 µM),relative viability ([3]; first compound 2.53 µM),relative viability ([3]; first compound 8 µM),relative viability ([4]; first compound 0.08 µM),relative viability ([4]; first compound 0.8 µM),relative viability ([4]; first compound 2.53 µM),relative viability ([4]; first compound 8 µM),relative viability ([5]; first compound 0.08 µM),relative viability ([5]; first compound 0.8 µM),relative viability ([5]; first compound 2.53 µM),relative viability ([5]; first compound 8 µM)
ChaGo-K-1,1.23,0.758,0.655,0.424,1.27,1.06,1.05,0.939,1.21,1.05,1.11,1.2,,,,,,,,
EKVX,0.53,0.423,0.438,0.354,1.15,0.998,1.18,0.946,1.09,0.989,0.983,0.895,1.08,0.948,0.971,0.931,0.998,0.807,0.858,0.745
EMC-BAC-2,0.59,0.47,0.491,0.426,1.1,0.99,1.04,0.962,0.741,0.713,0.715,0.68,0.885,0.775,0.773,0.739,0.75,0.703,0.733,0.612
EPLC-272H,0.341,0.303,0.343,0.294,1.04,0.691,1.01,1.01,0.926,0.793,0.917,0.932,1.28,1.09,1.2,1.16,1.1,0.807,0.901,0.846
H3255,0.566,0.521,0.498,0.462,0.854,0.844,0.869,0.732,1.01,0.835,0.89,0.809,1.09,0.953,0.943,0.931,0.738,0.698,0.654,0.521
HARA,0.431,0.327,0.325,0.137,1.22,1.04,1.15,0.465,1.07,0.919,1.18,1.03,1.15,0.922,1.08,0.657,1.05,0.797,0.914,0.481
HCC-15,0.774,0.689,0.558,0.662,1.09,1.01,1.14,1.2,0.815,0.794,0.754,0.845,0.841,0.834,0.852,0.776,0.867,0.714,0.909,0.743
HCC-44,0.622,0.37,0.596,0.511,0.956,0.868,0.983,0.969,0.756,0.674,0.867,0.853,0.643,0.645,0.674,0.635,0.765,0.715,0.831,0.755
